In ChEMBL document CHEMBL5038680, “Design, Synthesis, and Evaluation of PD-1/PD-L1 Antagonists Bearing a Benzamide Scaffold” (ACS Med Chem Lett, 2022) one finds IC50, inhibition and Activity data, which are given here for 42 compounds.

Calls of active or inactive are those of the source. The calls are words filed in the database; no cut-off is given here.

Test [1] addresses T1, Programmed cell death protein 1/Programmed cell death 1 ligand 1 (Homo sapiens, UniProt Q15116+Q9NZQ7). As to the kind of experiment: Inhibition of PD-1/PDL-1 (unknown origin) interaction incubated for 15 mins by TR-FRET assay. Format: protein-complex assay.
The target of test [2] is T1, Programmed cell death protein 1/Programmed cell death 1 ligand 1. As to the kind of experiment: Inhibition of PD-1/PDL-1 (unknown origin) interaction at 1 uM incubated for 15 mins by TR-FRET assay. The test is classed as protein-complex assay.
The subject of test [3] is MDA-MB-231. As to the kind of experiment: Cytotoxicity against human MDA-MB-231 cells assessed as cell killing by PBMC cell activation at 1 uM incubated for 24 hrs by LDH assay. Format: functional, cell-based.
Test [4] relates to MDA-MB-231. Kind of test: Cytotoxicity against human MDA-MB-231 cells assessed as cell killing at 2 uM incubated for 24 hrs by LDH assay. The test is classed as functional, cell-based.

T1 sequence (Q15116 whole entry): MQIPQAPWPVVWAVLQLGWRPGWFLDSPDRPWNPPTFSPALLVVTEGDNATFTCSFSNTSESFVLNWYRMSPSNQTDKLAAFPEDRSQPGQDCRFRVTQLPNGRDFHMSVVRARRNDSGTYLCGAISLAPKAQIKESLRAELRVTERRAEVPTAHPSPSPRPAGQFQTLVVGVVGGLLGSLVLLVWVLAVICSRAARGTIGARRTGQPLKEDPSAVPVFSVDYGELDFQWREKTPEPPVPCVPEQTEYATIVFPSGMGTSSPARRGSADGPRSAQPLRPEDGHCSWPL
T1 sequence (Q9NZQ7 whole entry): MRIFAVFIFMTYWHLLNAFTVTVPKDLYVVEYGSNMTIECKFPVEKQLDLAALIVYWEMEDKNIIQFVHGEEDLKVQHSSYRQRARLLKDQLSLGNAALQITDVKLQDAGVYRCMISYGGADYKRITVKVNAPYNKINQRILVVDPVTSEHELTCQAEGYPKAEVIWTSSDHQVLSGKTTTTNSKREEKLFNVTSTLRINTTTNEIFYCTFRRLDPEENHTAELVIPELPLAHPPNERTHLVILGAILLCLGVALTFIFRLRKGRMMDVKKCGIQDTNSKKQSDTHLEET

Consider `COc1nc(NC(=O)c2cccc(-c3ccccc3)c2Cl)ccc1CNCCNC(C)=O`, for which, in test [1], the IC50 – broadly, the concentration that gives 50% inhibition – was > 1000 nM. Moreover, the inhibition – broadly, how much of the control response was suppressed – in test [2] was found to be 28.2%.

With `COC(=O)C1CN(Cc2ccc(NC(=O)c3cccc(-c4ccccc4)c3Cl)nc2)C1`, in test [1], the IC50 was > 1000 nM. Besides, the inhibition in test [2] was 32.5%. Taken in the same sequence, the figures for `CC(=O)NCCNCc1ccc(NC(=O)c2cccc(-c3ccccc3)c2C)nc1` were > 1000 nM and 44.2%. Take `COc1ccccc1-c1cccc(C(=O)Nc2ccc(CNCCNC(C)=O)cn2)c1Cl`: the IC50 in test [1] was > 1000 nM. Further, the inhibition in test [2] is 5.52%. In test [1], `CC(=O)NCCNCc1ccc(NC(=O)c2cccc(-c3ccc4c(c3)OCCO4)c2Cl)nc1` returned a half-maximal inhibitory concentration (IC50) of 284 nM. In other words, the sub-micromolar range. `COc1ccc(-c2cccc(C(=O)Nc3ccc(CNCCNC(C)=O)cn3)c2Cl)cc1`: in test [1], the half-inhibitory concentration (IC50) was > 1000 nM. In test [2], this compound had an inhibition of 8.37%. Consider `O=C(Nc1ccc(CN2CCCC[C@H]2C(=O)O)cn1)c1cccc(-c2ccccc2)c1Cl`, for which the IC50 in test [1] is > 1000 nM. The inhibition in test [2] came to 41.2%.

For `CC(=O)NCCNCc1ccc(NC(=O)c2cccc(-c3ccccc3)c2Cl)nc1`, half-maximal inhibition in test [1] (IC50) was put at 496 nM. With `COCCOc1cccc(-c2cccc(C(=O)Nc3ccc(CNCCNC(C)=O)cn3)c2Cl)c1`, in test [1], the concentration for half-maximal inhibition (IC50) is > 1000 nM. This compound gave an inhibition in test [2] of 5.29%. In test [1], `O=C(Nc1ccc(CNC[C@@H](O)CO)cn1)c1cccc(-c2ccccc2)c1Cl` showed a half-maximal inhibitory concentration (IC50) of 442 nM. On the same count and under the same terms, the value for `O=C(Nc1ccc(CN2CC(O)C2)cn1)c1cccc(-c2ccccc2)c1Cl` was 528 nM; that for `O=C(Nc1ccc(CNCCO)c(F)n1)c1cccc(-c2ccccc2)c1Cl` was 429 nM. As to `CC(=O)NCCNCc1cccc(NC(=O)c2cccc(-c3ccccc3)c2Cl)n1`, in test [1], the 50% inhibitory concentration (IC50) is > 1000 nM. Further, the inhibition in test [2] was 15.8%. Taken in the same sequence, the figures for `CC(=O)NCCNCc1ccc(NC(=O)c2cccc(-c3cccc4c3CC[C@@H]4O)c2Cl)nc1` were > 1000 nM and “inactive”. Turning to `CC(=O)NCCNCc1ccc(NC(=O)c2cccc(-c3ccccc3)c2Cl)nc1F`, in test [1], it took 581 nM to reach half-maximal inhibition (IC50). Consider `COc1nc(NC(=O)c2cccc(-c3ccccc3)c2Cl)ccc1CNCCN(C)C`, for which the half-inhibitory concentration (IC50) in test [1] is > 1000 nM. The same compound yielded an inhibition in test [2] of 11.6%. Take `CC(=O)NCCNCc1ccc(NC(=O)c2cccc(-c3cccc(CO)c3)c2Cl)nc1`: the half-inhibitory concentration (IC50) in test [1] was > 1000 nM. Further, the inhibition in test [2] was 2.5%. Regarding `COC1CN(Cc2ccc(NC(=O)c3cccc(-c4ccccc4)c3Cl)nc2)C1`, in test [1], the IC50 is > 1000 nM. Also, the inhibition in test [2] was 44%. For `CC(=O)NCCNCc1ccc(NC(=O)c2cccc(-c3ccc(F)cc3)c2Cl)nc1`, in that order: > 1000 nM and 6.96%. Take `O=C(Nc1ccc(CNCCO)cn1)c1cccc(-c2ccccc2)c1Cl`: in test [1], the IC50 was 502 nM. Regarding `O=C(Nc1ccc(CN2CC[C@H](C(=O)O)C2)cn1)c1cccc(-c2ccc3c(c2)OCCO3)c1`, the 50% inhibitory concentration (IC50) in test [1] was > 1000 nM. Also, the inhibition entry in test [2] is “inactive”.

For the compound `CC(=O)NCCNCc1ccc(NC(=O)c2cccc(-c3ccccc3)c2Cl)cc1`, the IC50 in test [1] is > 1000 nM. The inhibition in test [2] came out at 9.86%. For `CC(=O)NCCNCc1ccc(NC(=O)c2cccc(-c3ccccc3)c2Cl)nc1C(F)(F)F`, in that order: > 1000 nM and 33.8%.

Take `CC(=O)NCCNCc1ccc(NC(=O)c2cccc(-c3ccc(S(C)(=O)=O)cc3)c2Cl)nc1`: in test [1], the IC50 was > 1000 nM. Besides, the inhibition entry in test [2] is “inactive”.

`O=C(Nc1ccc(CN2CC[C@H](C(=O)O)C2)cn1)c1cccc(-c2ccc3c(c2)OCCO3)c1Cl` gave a concentration for half-maximal inhibition (IC50) in test [1] of 16.2 nM. For the same compound, the outcome in the test on MDA-MB-231 [3] was Active. For the same compound, the outcome in the test on MDA-MB-231 [4] was inactive. Turning to `COc1ccc(-c2cccc(C(=O)Nc3ccc(CNCCNC(C)=O)cn3)c2Cl)cc1OC`, the IC50 in test [1] is > 1000 nM. As to `COc1cccc(-c2cccc(C(=O)Nc3ccc(CNCCNC(C)=O)cn3)c2Cl)c1`, the IC50 in test [1] is > 1000 nM. This compound showed an inhibition in test [2] of 46.1%. `O=C(Nc1ccc(CN2CC[C@@H](O)C2)cn1)c1cccc(-c2ccccc2)c1Cl` showed a half-maximal inhibitory concentration (IC50) in test [1] of 373 nM.

For the compound `O=C(Nc1ccc(CN2CC(C(=O)O)C2)cn1)c1cccc(-c2ccccc2)c1Cl`, in test [1], the IC50 worked out at 645 nM. As for `CC(=O)NCCNCc1ccnc(NC(=O)c2cccc(-c3ccccc3)c2Cl)c1`, it took 894 nM to reach half-maximal inhibition in test [1] (IC50). Consider `COC(=O)[C@H]1CCN(Cc2ccc(NC(=O)c3cccc(-c4ccccc4)c3Cl)nc2)C1`, for which the concentration for half-maximal inhibition (IC50) in test [1] was > 1000 nM. Moreover, the inhibition in test [2] is 50.6%. In test [1], `O=C(Nc1ccc(CN2CCC(O)CC2)cn1)c1cccc(-c2ccccc2)c1Cl` had a 50% inhibitory concentration (IC50) of 460 nM. For `CO[C@H]1CCc2c(-c3cccc(C(=O)Nc4ccc(CNCCNC(C)=O)cn4)c3Cl)cccc21`, the IC50 in test [1] was > 1000 nM. Moreover, the inhibition in test [2] was found to be 7.75%. Taken in the same sequence, the figures for `CN(C)CCNCc1ccc(NC(=O)c2cccc(-c3ccccc3)c2Cl)nc1` were > 1000 nM and 27.7%. Taken in the same sequence, the figures for `CC(=O)NCCNCc1ccc(NC(=O)c2cccc(-c3cc(F)c(F)c(F)c3)c2Cl)nc1` were > 1000 nM and 3.52%. Regarding `CC(=O)NCCNCc1ccc(NC(=O)c2cccc(-c3ccc(F)c(F)c3)c2Cl)nc1`, the IC50 in test [1] is > 1000 nM. In test [2], this compound came in with an inhibition of 2.32%.

As for `O=C(Nc1ccc(CNCCO)c(C(F)(F)F)n1)c1cccc(-c2ccccc2)c1Cl`, the half-maximal inhibitory concentration (IC50) in test [1] was > 1000 nM. The inhibition in test [2] came out at 41.5%. As for `O=C(Nc1ccc(CN2CC[C@H](C(=O)O)C2)cn1)c1cccc(-c2ccc3c(c2)OCCO3)c1Br`, in test [1], half-maximal inhibition (IC50) required 46.5 nM. In test [1], `O=C(Nc1ccc(CN2CC[C@H](C(=O)O)C2)cn1)c1cccc(-c2ccccc2)c1Cl` gave a 50% inhibitory concentration (IC50) of 173 nM. Regarding `CC(=O)NCCNCc1ccc(NC(=O)c2cccc(-c3ccncc3)c2Cl)nc1`, in test [1], the concentration for half-maximal inhibition (IC50) is > 1000 nM. For the same compound, the inhibition result in test [2] is “inactive”.

`COCCNCc1ccc(NC(=O)c2cccc(-c3ccccc3)c2Cl)nc1` had an IC50 in test [1] of 797 nM. Turning to `O=C(Nc1ccc(CN2CC[C@H](C(=O)O)C2)cn1)c1cccc(-c2ccc3c(c2)OCCO3)c1F`, the 50% inhibitory concentration (IC50) in test [1] is > 1000 nM. For the same compound, the inhibition result in test [2] was “inactive”.
